Measurements taken from patent US11098058B2, “Bicyclic ketone compounds and methods of use thereof” (Genentech, Inc., priority 2017, dated 2021).

biological target: human RIP1 kinase domain (2-375) (Homo sapiens (Human), UniProt Q13546); conditions: RIP1 kinase inhibition, tight-binding apparent Ki; 50 nM enzyme, 50 μM ATP, 2 hours incubation
Sequence (Q13546 2-375): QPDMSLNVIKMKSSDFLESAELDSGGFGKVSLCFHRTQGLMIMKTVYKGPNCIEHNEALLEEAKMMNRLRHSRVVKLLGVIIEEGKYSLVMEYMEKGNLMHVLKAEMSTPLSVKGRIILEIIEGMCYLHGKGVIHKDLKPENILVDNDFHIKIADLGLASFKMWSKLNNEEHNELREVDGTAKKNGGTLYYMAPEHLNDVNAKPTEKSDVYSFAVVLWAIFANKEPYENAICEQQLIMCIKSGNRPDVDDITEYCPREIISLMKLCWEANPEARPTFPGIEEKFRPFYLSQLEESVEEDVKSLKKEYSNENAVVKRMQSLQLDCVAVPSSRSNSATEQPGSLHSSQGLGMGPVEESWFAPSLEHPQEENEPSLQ
Description: RIP1 Kinase Inhibition Assays (Biochemical Assay)
The ability of the receptor interacting protein kinase (RIPK1) to catalyze the hydrolysis of adenosine-5′-triphosphate (ATP) is monitored using the Transcreener ADP (adenosine-5′-diphosphate) assay (BellBrook Labs). Purified human RIP1 kinase domain (2-375) (50 nM) derived from a baculovirus-infected insect cell expression system is incubated with test compounds for 2 hours in 50 mM Hepes buffer (pH 7.5) containing 30 mM MgCl2, 1 mM dithiothreitol, 50 μM ATP, 0.002% Brij-35, and 0.5% dimethyl sulfoxide (DMSO). […] The tracer bound to the antibody is displaced by the ADP generated during the RIP1K reaction, which causes a decrease in fluorescence polarization that is measured by laser excitation at 633 nm with a FP microplate reader M1000. Fractional activity was plotted against test article concentration. Using Genedata Screener software (Genedata; Basel, Switzerland), the data were fit to the tight-binding apparent inhibition constant (Ki^app) Morrison equation [Williams, J. W. and Morrison, J. F. (1979) The kinetics of reversible tight-binding inhibition. […] The following equation was used to calculate fractional activity and Ki^app:
[formula] where [E]T and [I]T are the total concentrations of active enzyme and test article, respectively.

SMILES	Ki [nM]
O=C(c1nc2n(n1)[C@H](c1ccccc1Cl)CC2)C1CC1 (single isomer, unassigned) [Example 77]	14
O=C(c1nc2n(n1)[C@@H](c1ccccc1)C[C@H]2F)C1CC(F)(F)C1 (single isomer, unassigned) [Example 64]	780
O=C(c1nc2n(n1)[C@H](c1ccccc1F)C[C@@H]2F)C1CC1 (single isomer, unassigned) [Example 62]	4

Second part, the compound after the results:

Ki [nM]	SMILES
28	O=C(c1nc2n(n1)[C@H](c1ccccc1)C[C@@H]2F)C1CC1C(F)(F)F (stereo partly drawn) [Example 81, [(5S,7S)-7-fluoro-5-phenyl-6,7-dihydro-5H-pyrrolo[1,2-b][1,2,4]triazol-2-yl]-[2-(trifluoromethyl)cyclopropyl]methanone]
3.6	O=C(c1nc2n(n1)[C@H](c1c(F)ccc(F)c1F)C[C@@H]2F)C1CC1 (single isomer, unassigned) [Example 102]
41	CCC[C@@H]1C[C@H](F)c2nc(C(=O)C3CC3)nn21 (single isomer, unassigned) [Example 93]
3.1	O=C(c1nc2n(n1)[C@H](c1cccc(F)c1F)C[C@@H]2F)C1CC1 (single isomer, unassigned) [Example 106]
150	CO[C@H]1C[C@@H](c2ccccc2)n2nc(C(=O)C3CC3)nc21 (single isomer, unassigned) [Example 84]

same assay, conditions: tight-binding apparent inhibition constant (Ki app, Morrison equation); 50 nM enzyme, 50 μM ATP, 2 hours incubation

Ki [nM]	SMILES
11.5	CC(C)(C)C(=O)c1nc2n(n1)C(c1ccccc1)CC2F (stereo not shown) [Example 44, 1-(7-fluoro-5-phenyl-6,7-dihydro-5H-pyrrolo[1,2-b][1,2,4]triazol-2-yl)-2,2-dimethyl-propan-1-one]
14.3	CC(C)C(=O)c1nc2n(n1)C(c1ccccc1)CC2F (stereo not shown) [Example 45, 1-(7-fluoro-5-phenyl-6,7-dihydro-5H-pyrrolo[1,2-b][1,2,4]triazol-2-yl)-2-methyl-propan-1-one]
